Measured values reported in PMC6609550, “Blockade of the forward Na^+/Ca^2+ exchanger suppresses the growth of glioblastoma cells through Ca^2+‐mediated cell death” (British Journal of Pharmacology, 2019).

Legend:
Assay type in all cases: cell-based, Human
[1] = tested on: [Ca^2+]i in U87 cells; test: Ca2+ imaging (Fluo-4 AM) of U87 cells
Method: (§1) Cells were cultured in 96‐well plates at 8 × 10^3 per well and loaded with the cell membrane‐permeable Ca^2+ dye Fluo‐4 AM (5 μM) in 100‐μl HEPES‐buffered solution for 50 min. The solution contained (mM): 135 NaCl, 3 KCl, 2 CaCl2, 1 MgCl2, 10 glucose, and 10 HEPES, supplemented with 1% FBS at pH 7.4. To prepare the Ca^2+‐free solution, 2‐mM CaCl2 was replaced with 1‐mM EGTA in the HEPES‐buffered solution. The 96‐well plate containing the Fluo‐4 AM‐loaded cells was mounted in a Leica TCS SP8 confocal system (Leica Microsystems, Wetzlar, Germany). The confocal microscope armed with 488‐nm laser light was employed to excite the dynamic fluorescent signals in time and synchronously, while test regents were added to cells. To do Na^+ imaging, Fluo‐4 AM was replaced with the cell membrane‐permeable Na^+ dye Asante NaTrium Green‐2 AM (ANG‐2 AM) at 5 μM, which was excited by 514‐nm laser light. Visual inspection and fluorescent imaging were carried out at room temperature. The imaging data were analysed with the software https://leica-las-af-lite.software.informer.com/ 2.5 (Leica). The imaging traces shown are representative of at least three separate experiments; 12–18 cells were imaged in each experiment.

[2] = tested on: p38‐MAPK; test: Western blot of phosphorylated and total p38-MAPK in U87 cells; conditions: BAPTA‐AM 10 μM 18 hr then bepridil 25 μM 30 min
Method: (§2) After treatment with bepridil for 0, 30, 60, and 90 min, cells were collected and lysed in RIPA buffer (Beyotime, Nanjing, China) supplemented with protease inhibitor (Beyotime). The total protein concentration of each sample was determined using the BCA Protein Assay Kit (Sangon Biotech, Shanghai, China). Equal protein extracts (45‐μg protein per lane) were separated by SDS‐PAGE and electrophoretically transferred to PVDF membranes (Millipore, Bedford, MA, USA). Then, the membranes were incubated with anti‐phosphorylated and total http://www.guidetopharmacology.org/GRAC/FamilyDisplayForward?familyId=514, http://www.guidetopharmacology.org/GRAC/FamilyDisplayForward?familyId=518, and http://www.guidetopharmacology.org/GRAC/FamilyDisplayForward?familyId=519 antibodies (1:1,000; Cell Signaling Technology) at 4°C overnight, followed by incubation with IRDye 680LT fluorescent secondary antibody (LI‐COR Biosciences, Lincoln, NE, USA). Proteins were visualized using the Odyssey Fc Imaging System (LI‐COR Biosciences, Lincoln, NE, USA). Mouse α‐tubulin antibody was used as protein loading controls. The immuno‐related procedures used comply with the recommendations made by the British Journal of Pharmacology (Alexander et al., 2018).

[3] = tested on: U87 cells; test: Annexin V–FITC/PI apoptosis assay of U87 cells
Method: (§3) U87 cells were seeded in six‐well plates (Corning, Corning, NY, USA) with 1 × 10^6 cells per well and treated with NCX blockers, BAPTA‐AM, or MAPK inhibitors. Drug treatment was performed by the person who is blinded to the experimental groups. After treatment, cells were harvested in 15‐ml tubes and washed with cold sterile PBS. After being centrifuged, cells were fixed with 70% ethanol […] at 4°C for at least 1 hr. For propidium iodide (PI) staining, cells were washed one time with PBS and then were treated with ribonuclease A (RNase; 100 μg·ml^−1) for 30 min. PI (10 μg·ml^−1) was added, and stained cells were kept in the dark at 4°C until analysis. The number of cells analysed for each sample was 10,000 events. FACS analysis was performed using the Coulter CytoFlexS flow cytometer (Beckman Coulter, CA, USA), and the percentage of cells in the G0/G1, S, and G2/M phases was determined using cell cycle analysis software, ModFit LT 5.0 (Verity Software House, Topsham, ME, USA). For the apoptosis assay, cells were harvested and washed twice with cold PBS and resuspended at a density of 1 × 10^6 cells·ml^−1 in 100 μl of binding buffer containing 5 μl of Annexin V–FITC and 5 μl of PI working solution (100 μg·ml^−1). After incubation at room temperature for 15 min in the dark, 400 μl of binding buffer was added to each sample. Apoptosis was analysed by Coulter CytoFlexS flow cytometer (Beckman Coulter) for at least 10,000 events, and data were analysed with the software, CyExpert 2.0 (Beckman Coulter).

[4] = tested on: JNK; test: Western blot of phosphorylated and total JNK in U87 cells; conditions: BAPTA‐AM 10 μM 18 hr then bepridil 25 μM 30 min
Method: as §2

[5] = tested on: U87 cells; test: Cell cycle assay (PI staining, flow cytometry) of U87 cells
Method: as §3

[6] = tested on: U87 cells; test: Cell viability assay (Cell Counting Kit-8), U87; conditions: 72 hr, CCK-8; mean ± SEM
Method: (§4) Cell viability was determined by using a Cell Counting Kit‐8 (Dojindo, Japan). Briefly, cells were harvested from flasks and plated in 96‐well cell culture plates at 5 × 10^3 per well and cultured overnight. […] Control cells were treated with cell culture medium and measured at the same time point as treatment groups. CCK‐8 solution (10 μl) was added to each well of the 96‐well plates, and the cultures were incubated for 30 min at 37°C. Absorbance at 450 nm was measured using an automatic microplate reader (Molecular Devices, San Jose, CA, USA).
(§5) Figure 2 Effect of the Na^+/Ca^2+ exchanger (NCX) blockers on viability of human glioblastoma cell lines. (a, b) Viability of adult glioblastoma cell lines (U87 and U251) after exposure to NCX blockers bepridil, KB‐R7943, SEA0400, SN‐6, or YM244769 at 0–100 μM for 72 hr. n = 5 independent tests per group. (c) Viability of paediatric glioblastoma cell line SF188 after 72‐hr incubation with the same NCX blockers at 0–100 μM. n = 5 independent tests per group. (d) For U87, U251, and SF188 cell lines, concentration of the NCX blockers required to produce half maximal inhibition (IC50: μM, mean ± SEM) of cell viability.

[7] = tested on: [Na^+]i in U87 cells; test: Na+ imaging (ANG-2 AM) of U87 cells; conditions: bepridil 50 μM, KB‐R7943 50 μM, CB‐DMB 4 μM
Method: as §1

[8] = tested on: U251 cells; test: Cell viability assay (Cell Counting Kit-8), U251; conditions: 72 hr, CCK-8; mean ± SEM
Method: as §4, §5

[9] = tested on: SF188 cells; test: Cell viability assay (Cell Counting Kit-8), SF188; conditions: 72 hr, CCK-8; mean ± SEM
Method: as §4, §5

[10] = BAPTA‐AM 10 μM 18 hours then CB‐DMB 3.5 μM 18 hours

Row | SMILES | Effect of pretreatment on the influence of bepridil and KB‐R7943 on [Ca2+]i ([1]; BAPTA‐AM 20 μM for 2 hr before perfusion) | Effect on bepridil-induced p38-MAPK activation [2] | Effect on CB-DMB-induced apoptosis [3, 10] | Effect on KB-R7943-induced apoptosis ([3]; BAPTA‐AM 10 μM + KB‐R7943 25 μM, 20 hr) | Effect on bepridil-induced apoptosis ([3]; bepridil 25 μM 24 hr, pretreatment BAPTA‐AM 10 μM, CC‐930 10 μM or PD169316 10 μM) | Effect on bepridil-induced JNK activation [4] | Effect on CB-DMB-induced cell cycle arrest [5, 10] | Effect on KB-R7943-induced G0/G1 arrest ([5]; BAPTA‐AM 10 μM + KB‐R7943 25 μM, 18 hr) | Effect on bepridil-induced G0/G1 cell cycle arrest ([5]; bepridil 25 μM 18 hr, pretreatment BAPTA‐AM 10 μM, CC‐930 10 μM or PD169316 10 μM) | IC50 [6] [µM] | Effect on intracellular Ca2+ pool and ER Ca2+ transporting ([1]; Ca2+‐free solution, followed by 5‐μM thapsigargin) | Effect on [Ca2+]i level ([1]; solution containing 2‐mM Ca2+, bepridil or KB‐R7943 25 or 50 μM, CB‐DMB 2 and 4 μM) | Effect on apoptosis (Annexin V+ cells), compound alone ([3]; bepridil 25 μM 6–48 hr, CB‐DMB 3.5 μM 6–48 hr, KB‐R7943 25 μM 20 hr, BAPTA‐AM 10 μM 18 hr, CC‐930 10 μM, PD169316 10 μM) | Effect on intracellular Na+ [Na+]i level [7] | IC50 [8] [µM] | Effect on cell cycle distribution, compound alone ([5]; bepridil 25 μM 6–24 hr, CB‐DMB 3.5 μM 6–24 hr, KB‐R7943 25 μM 18 hr, BAPTA‐AM 10 μM 18 hr, CC‐930 10 μM, PD169316 10 μM 18 hr) | IC50 [9] [µM]
1 | CC(=O)OCOC(=O)CN(CC(=O)OCOC(C)=O)c1ccccc1OCCOc1ccccc1N(CC(=O)OCOC(C)=O)CC(=O)OCOC(C)=O [BAPTA‐AM, 1,2‐bis(2‐aminophenoxy)ethane‐N,N,N′,N′‐tetraacetic acid tetrakis (acetoxymethyl ester)] | completely abrogated | attenuated | significantly suppressed | not attenuated | significantly attenuated | attenuated | significantly attenuated | not rescued | significantly attenuated | – | – | – | – | – | – | – | –
2 | Cc1ccc(CNC(N)=NC(=O)c2nc(Cl)c(NCc3ccc(Cl)cc3)nc2N)c(C)c1 [CB‐DMB, [N‐(4‐chlorobenzyl)]2,4‐dimethylbenzamyl] | – | – | – | – | – | – | – | – | – | 3.1 ± 0.6 | did not affect the ER Ca^2+ transporters | elevated [Ca^2+]i | activated apoptosis in time‐dependent manner | did not change | 2.7 ± 0.1 | induced G0/G1 arrest | 2.6 ± 0.1
